For this experiment, the species on record is Bos taurus. The experiment is described as follows: Inhibition of calf thymus topoisomerase 1 relative to Hoechst 33342.

Structures are written as SMILES.

On to `Cc1ccccc1-c1nc2cc(-c3nc4cc(C#N)ccc4[nH]3)ccc2[nH]1`, for which the Ratio is > 500.

Regarding `c1ccc(-c2cc3nc(-c4ccc5nc(-c6ccc7nc[nH]c7c6)[nH]c5c4)[nH]c3cc2-c2ccccc2)cc1`, the Ratio worked out at 1. For `COc1ccc(-c2nc3cc(CN)ccc3[nH]2)cc1`, the Ratio is > 300000.

For the molecule `COc1ccc(-c2nc3cc(-c4nc5cc(N6CCN(C)CC6)ccc5[nH]4)ccc3[nH]2)cc1`, the Ratio came out at 1.

These data come from ChEMBL document CHEMBL1671799, “Modelling topoisomerase I inhibition by minor groove binders” (Bioorg Med Chem, 2011).
